“And” between values parts separate entries of the source, which are not always exact repeats. Equal values may be shown once. “Also recorded” adds a separate entry of the source.
Legend:
[1] = pH-dependent activation of Compound 1 in human plasma
[2] = system: histology-confirmed tumor and normal tissue; test: Postoperative tissue slice fluorescence imaging (LI-COR Pearl; MFI, CNR, TBR, ROC) correlated with histopathology; assay type: in vivo, human; conditions: for Ex Vivo Tissue Slice CNR / Ex Vivo Tissue Slice TBR: per patient, LI-COR Pearl
Description: Timing of postoperative tissue slice imaging was adapted to accommodate the differences in the SOC for specimen processing of the different tumor types. Briefly, BC specimens were sliced fresh on the day of surgery and then formalin fixed, other tumor types were sliced after formalin fixation of the whole resection specimen 1 to 3 days after surgery. Generally, the surgical specimen was serially sliced into ±0.5 cm thick tissue slices. White light photographs were made during and directly after slicing for orientation purposes. After slicing, fluorescence imaging on both sides of each tissue slice was performed in a light-tight environment (LI-COR PEARL® Trilogy system). BC slices were therefore imaged approximately 120 min after excision, other tumor types were sliced and imaged the subsequent day(s) after excision and formalin fixation.
Each BLS underwent overnight formalin fixation in 4% paraformaldehyde/phosphate buffered saline. The pathologist then macroscopically sampled parts of BLS (FFPE embedding) for further analysis according to SOC and preparation of 4 μm slices for hematoxylin and eosin (H/E) staining to delineate tumor tissue for histopathological correlation. Additional FFPE blocks could be embedded based on fluorescence imaging of the BLS additional to the SOC examination by conventional macroscopic visual inspection of the pathologist. A standardized workflow was executed in order to cross-correlate final histopathology results with recorded fluorescence images of tissue slices of interest. FFPE blocks were scanned after 7 to 14 days using the Odyssey Flatbed Scanner (LI-COR Bioscience).
After the SOC pathological procedure was performed (approximately 7-10 days for Phase 1a and 7-14 days for Phase 1b), H/E slices were reviewed and discussed with the dedicated board-certified pathologist for the respective tumor type.
A correlation between HE slices and fluorescence images (i.e., bread loaf slice or BLS) were made using Adobe Illustrator and Fiji (ImageJ). After precisely and manually drawing the region of interest (ROI) containing tumor and background based on the histopathological outcome, a CNR was calculated for each LI-COR PEARL image of a separate BLS for each patient. The median CNR was calculated based on all available BLS containing tumor.
Compound 1 fluorescence images were captured from the postoperative specimens (BLS specimens) prepared at each step of the standard pathology for the purposes of correlating Compound 1 fluorescence with histopathological finding of the tumor and the normal tissue. LI COR PEARL, a laboratory camera with capabilities to standardize imaging and fluorescence quantification, was used to compare fluorescence intensity across multiple specimens.
Intraoperative fluorescence intensity cannot be standardized and compared between patients or dose levels due to the unique presentation of each surgical environment. Multiple variables such as camera angle, camera-tissue distance, tumor location, and coverage by other tissues or fat affect the absolute value of the fluorescence signal. To enable direct comparison of MFI across patients and doses, patient tissue slices were imaged with LI-COR Pearl, the standardizable close field camera, using the standard postoperative workflow for fluorescence.

[3] = Safety (adverse effects) in dog-patients; assay type: in vivo; conditions: 7 dogs; 0.5-2.0 mg/kg; injection through discharge
Procedure: Materials and methods: After evaluation and recruitment for the study, dog-patients underwent (A) pre-operation analysis to identify possible types of lesion, and (B) Compound 1 tracer was administrated at 0.5 to 2.0 mg/kg, 18-78 hours prior to surgery. During the surgery (C) intra-operative imaging was performed using a Hamamatsu PDE or custom NIR camera before and after tumor removal (or after limb amputations). Resected tissues were (D) imaged with a LI-COR Pearl Imaging station and tumor-to-normal-tissue ratios were calculated accordingly. The resected tissues were then (E) preserved for histopathology validation. Safety was assessed separately in terms of adverse effects through physical examinations, laboratory tests and the recording of adverse events from infusion through discharge from hospital.
Results: A summary of the data from spayed or neutered dog patients that were recruited for the study is shown below (Table 16). Results from a total of seven dogs of different breeds, aged 4-12 years, body weights ranging from 20.9-59.5 kg, and with a range of tumors ware presented, including instances where more than one tumor was present. Doses studied thus far ranged from 0.5-2.0 mg/kg. […] Both acute and chronic adverse effects were monitored from the time of injection through discharge of the animals from the hospital and follow-up appointments (to remove sutures) and noted.

## PEO90-140-b-P(DBA60-150-r-ICG0-3-r-AMA0-3) [Compound 1]
[1]; human plasma with HCl
  Fluorescence on adding increasing amounts of Compound 1: increase in fluorescence
[1]; human plasma, no acid
  Fluorescence on adding increasing amounts of Compound 1: did not show any increase in fluorescence
[2]; 0.1 mg/kg, HNSCC
  Ex Vivo Tissue Slice CNR: 3.5 and 3.2 and 0.9
  Ex Vivo Tissue Slice TBR: 4.5 (2×) and 1.9
[2]; 0.3 mg/kg, BC
  Ex Vivo Tissue Slice CNR: 7.0 and 14.1 and 3.2
  Ex Vivo Tissue Slice TBR: 4.5 and 27.0 and 4.2
[2]; 0.5 mg/kg, BC
  Ex Vivo Tissue Slice CNR: 6.4
  Ex Vivo Tissue Slice TBR: 5.0
[2]; 0.5 mg/kg, HNSCC
  Ex Vivo Tissue Slice CNR: 3.1 and 1.8
  Ex Vivo Tissue Slice TBR: 3.9 and 2.2
[2]; 0.8 mg/kg, BC
  Ex Vivo Tissue Slice CNR: 5.7 and 9.2
  Ex Vivo Tissue Slice TBR: 8.0 and 11.9
[2]; 0.8 mg/kg, HNSCC
  Ex Vivo Tissue Slice CNR: 4.8
  Ex Vivo Tissue Slice TBR: 5.9
[2]; 1.2 mg/kg, BC
  Ex Vivo Tissue Slice CNR: 3.9 and 10.5 and 7.6 and 3.4
  Ex Vivo Tissue Slice TBR: 4.8 and 14.2 and 12.0 and 4.2
[2]; 1.2 mg/kg, CRC
  Ex Vivo Tissue Slice CNR: 12.8
  Ex Vivo Tissue Slice TBR: 16.9
[2]; 1.2 mg/kg, EC
  Ex Vivo Tissue Slice CNR: 2.9 and 2.1
  Ex Vivo Tissue Slice TBR: 3.4 and 3.2
[2]; 1.2 mg/kg, HNSCC
  Ex Vivo Tissue Slice CNR: 2.4 and 1.9 (2×) and 3.5 (2×) and 2.8 and 4.4
  Ex Vivo Tissue Slice TBR: 2.9 and 2.2 and 5.4 and 3.7 and 2.5 and 6.5 and 5.2
[2]; Phase 1a, 0.1 to 1.2 mg/kg
  Patient tumor specimens with postoperative imaging feasibility: 15
[2]; all dose cohorts
  Tumor MFI compared with non-tumor tissue: significantly higher
[2]; all tissue slices (n=97 from 26 subjects), IQR 3.1
  Median tumor-to-background ratio (TBR): 4.5
[2]; all tumor types and doses
  Postoperative fluorescence of tumors: fluoresced in tissue slices from all the patients and tumor types; also recorded: all tumors irrespective of tumor type or dose were fluorescent
[2]; postoperative tissue slices, 0.1 to 1.2 mg/kg
  Tumor MFI in relation to dose: increased with dose
[2]; tissue slices, 1.2 mg per kg dose cohort, n=59
  ROC curve AUC: 0.9875
[2]; tissue slices, measurement level, P<0.0001
  ROC curve area under the curve: 0.9726
[2]; tissue slices, 1.2 mg/kg, IQR 3.0
  TBR: 4.5
[3]
  Adverse effects: no adverse effects
